The source of these data is ChEMBL document CHEMBL4706659, “Design, synthesis and biological evaluation of novel 2,4-diaryl pyrimidine derivatives as selective EGFR inhibitors” (Eur J Med Chem, 2021).

In general, IC50 refers to the concentration that inhibits the measured activity by half. One may read the Tmax as the time from dosing to the highest level. For orientation: clearance means the volume of plasma or blood freed of the substance per unit of time. Read a high clearance as efficient removal. The term MRT denotes a mean duration of stay, worked out from the concentration-time curve. As a reminder, the bioavailability is the share of a dose that reaches the circulation, judged against a reference dose that is usually intravenous. As a reminder, the Cmax is the maximum level reached in the sampled fluid or tissue. In general, AUC(0-t) refers to the area under the concentration-time curve up to a stated or last time point. Lower therefore signals low exposure. As usually defined, the half-life is the time in which the quantity being followed falls by half. As a reminder, the AUC(0-inf) is total exposure, with the tail of the curve extrapolated. Read a high AUC(0-inf) as high exposure. In general, TGI refers to the reduction of tumour growth relative to the control group.

The subject of one data set is NCI-H292. The experiment in a line: Antiproliferative activity against human NCI-H292 cells harboring wild-type EGFR by MTT assay. It is filed as functional, cell-based. (Tetrazolium dyes change colour on reduction, which living cells bring about.)
The test system of data set [1] is NCI-H1975. As to the kind of experiment: Antiproliferative activity against human NCI-H1975 cells harboring EGFR T790M/L858R mutant by MTT assay. The data set is classed as functional, cell-based.
For data set [2], the system named is PC-9. The experiment in a line: Antiproliferative activity against human PC-9 cells harboring EGFR L858R mutant by MTT assay. The data set is classed as functional, cell-based.
Data set [3] is described as follows: Selectivity ratio of IC50 for antiproliferative activity against human NCI-H292 cells harboring wild-type EGFR to IC50 for antiproliferative activity against human NCI-H1975 cells harboring EGFR T790M/L858R mutant. It is filed as functional.
Data set [4] is described as follows: Antiproliferative activity against human DiFi cells. The data set is classed as functional, cell-based.
Data set [5] can be described thus: Antiproliferative activity against human RPC9 cells. It is filed as functional, cell-based.
The test system of data set [6] is PC-9. The experiment in a line: Antiproliferative activity against human PC-9 cells. The data set is classed as functional, cell-based.
The nature of data set [7]: Tmax in Sprague-Dawley rat at 10 mg/kg, po administered as single dose. The conditions noted are these: in vivo. The data set is classed as ADME, organism-based.
Data set [8] is described as follows: Clearance in Sprague-Dawley rat at 2 mg/kg, iv administered as single dose. The data set is classed as ADME, organism-based. The conditions noted are these: in vivo.
The nature of data set [9]: MRT in Sprague-Dawley rat at 10 mg/kg, po administered as single dose. The data set is classed as ADME, organism-based. The conditions noted are these: in vivo.
Data set [10] can be described thus: Oral bioavailability in Sprague-Dawley rat at 10 mg/kg administered as single dose. The data set is classed as ADME, organism-based. The conditions noted are these: in vivo.
Data set [11] can be described thus: Cmax in Sprague-Dawley rat at 10 mg/kg, po administered as single dose. The data set is classed as ADME, organism-based. Further details: route oral, dose 10 mg/kg. The conditions noted are these: in vivo.
The nature of data set [12]: AUC (0 to t) in Sprague-Dawley rat at 10 mg/kg, po administered as single dose. The data set is classed as ADME, organism-based. Further details: dose 10 mg/kg. Particulars: in vivo.
The nature of data set [13]: AUC (0 to t) in Sprague-Dawley rat at 2 mg/kg, iv administered as single dose. It is filed as ADME, organism-based. On the set-up: dose 2 mg/kg. Particulars: in vivo.
The nature of data set [14]: Cmax in Sprague-Dawley rat at 2 mg/kg, iv administered as single dose. Further details: route intravenous, dose 2 mg/kg. It is filed as ADME, organism-based. Particulars: in vivo.
Data set [15] in a line: Half life in Sprague-Dawley rat at 10 mg/kg, po administered as single dose. The data set is classed as ADME, organism-based. The conditions noted are these: in vivo.
The nature of data set [16]: AUC (0 to infinity) in Sprague-Dawley rat at 2 mg/kg, iv administered as single dose. The data set is classed as ADME, organism-based. On the set-up: route intravenous, time infinity, dose 2 mg/kg. Particulars: in vivo.
Data set [17] in a line: AUC (0 to infinity) in Sprague-Dawley rat at 10 mg/kg, po administered as single dose. Further details: time infinity, route oral, dose 10 mg/kg. It is filed as ADME, organism-based. Particulars: in vivo.
Data set [18] can be described thus: MRT in Sprague-Dawley rat at 2 mg/kg, iv administered as single dose. The conditions noted are these: in vivo. It is filed as ADME, organism-based.
Data set [19] is described as follows: Half life in Sprague-Dawley rat at 2 mg/kg, iv administered as single dose. The data set is classed as ADME, organism-based. Particulars: in vivo.
In a further data set the test system is HK-2. The experiment in a line: Cytotoxicity against HK-2 cells assessed as reduction in cell viability by MTT assay. It is filed as cell-based. The conditions noted are these: Homo sapiens.
The test system of data set [20] is NCI-H1975. The experiment in a line: Antitumor activity against human NCI-H1975 cells harboring EGFR T790M/L858R mutant xenografted in nude mouse assessed as tumor growth inhibition at 15 mg/kg, po administered once daily for 7 days relative to control. The data set is classed as functional. Particulars: time 7 day. (In general: Xenograft models place foreign cells or tissue in a host animal.)

Data set [21] has as its system NCI-H1975. As to the kind of experiment: Antitumor activity against human NCI-H1975 cells harboring EGFR T790M/L858R mutant xenografted in nude mouse assessed as tumor volume at 15 mg/kg, po administered once daily for 7 days (reference value: 843 mm3). It is filed as functional. Particulars: time 7 day.
Data set [22] in a line: Cytotoxicity against HLF cells assessed as reduction in cell viability by MTT assay. Particulars: Homo sapiens. The data set is classed as cell-based.
Data set [23] is described as follows: Cytotoxicity against HEK293-A cells assessed as reduction in cell viability by MTT assay. The data set is classed as cell-based. The conditions noted are these: Homo sapiens.
In data set [24] the test system is NCI-H1975. As to the kind of experiment: Antiproliferative activity against human NCI-H1975 cells. It is filed as functional, cell-based.
A further data set concerns BT-474. The experiment in a line: Antiproliferative activity against human BT-474 cells. It is filed as functional, cell-based.
A further data set deals with SK-BR-3. The experiment in a line: Antiproliferative activity against human SK-BR-3 cells. The data set is classed as functional, cell-based.

Take `C=CC(=O)Nc1cc(Nc2nccc(-c3cn(C4CC4)c4ccccc34)n2)c(OC)cc1N(C)CCO`: the half-maximal inhibitory concentration (IC50) in the data set on NCI-H292 is 1690 nM; with NCI-H1975 [1], 74 nM; in the data set on PC-9 [2] it was 64 nM. In addition, the “Ratio IC50” value in data set [3] worked out at 22.9.

As to `C=CC(=O)Nc1cc(Nc2nccc(-c3cn(C4CC4)c4ccccc34)n2)c(OC)cc1N(C)CC[S+](C)[O-]` (stereo not drawn), the half-maximal inhibitory concentration (IC50) was found to be 1140 nM in the data set on NCI-H292, 411 nM with NCI-H1975 [1] and 261 nM with PC-9 [2]. The “Ratio IC50” value in [3] worked out at 2.8.

Turning to `C=CC(=O)Nc1cc(Nc2nccc(-c3cn(C4CC4)c4ccccc34)n2)c(OC)cc1OCCCSC`, the figures for the IC50 in the data set on NCI-H292, in the data set with NCI-H1975 [1] and in the data set on PC-9 [2] were over 10000 nM, 1120 nM and 2320 nM, respectively. Besides, in [3], the “Ratio IC50” value is listed as over 8.9.

Consider `C#Cc1cccc(Nc2ncnc3cc(OCCOC)c(OCCOC)cc23)c1` [ERLOTINIB], for which it took 20 nM to reach half-maximal inhibition in data set [4] (IC50).

Turning to `C=CC(=O)Nc1cc(Nc2nccc(-c3cn(C4CC4)c4ccccc34)n2)c(OC)cc1N1CCSCC1`, the values for the IC50 in the data set on NCI-H292, in the data set with NCI-H1975 [1] and in the data set with PC-9 [2] were over 10000 nM, 333 nM and 734 nM, respectively. In data set [3], the “Ratio IC50” value was over 30.

For the molecule `C=CC(=O)Nc1cc(Nc2nccc(-c3cn(C4CC4)c4ccccc34)n2)c(OC)cc1OCC[S+](C)[O-]` (stereo not drawn), the IC50 worked out at 4810 nM in the data set with NCI-H292, 544 nM in the data set with NCI-H1975 [1] and 435 nM with PC-9 [2]. Further, the “Ratio IC50” value in data set [3] is 8.8.

On to `CN(C)C/C=C/C(=O)Nc1cc2c(Nc3ccc(F)c(Cl)c3)ncnc2cc1O[C@H]1CCOC1` [AFATINIB], for which the IC50 stood at 164 nM in data set [5] and 0.3 nM in the data set on PC-9 [6].

On to `C=CC(=O)Nc1cc(Nc2nccc(-c3cn(C)c4ccccc34)n2)c(OC)cc1[S+]([O-])CCN(C)C` (stereo not drawn), for which the Tmax in data set [7] stood at 1 h. In data set [8], this molecule had a clearance of 82.2 mL/min/kg. Moreover, the MRT in [9] stood at 2.07 h; in [18], 0.89 h. This molecule also came in with a bioavailability in data set [10] of 31.6%. In addition, the Cmax amounted to 275 ng/mL in data set [11] and 789 ng/mL in data set [14]. The AUC(0-t) in data set [12] was determined as 635 ng·h/mL; in data set [13], 402 ng·h/mL. The half-life in data set [15] is 1.43 h; in [19], 0.62 h. Also, the total exposure AUC(0-inf) in [16] was found to be 406 ng·h/mL; in data set [17], 652 ng·h/mL.

Take `C=CC(=O)Nc1cc(Nc2nccc(-c3cn(C)c4ccccc34)n2)c(OC)cc1N(C)CCN(C)C` [OSIMERTINIB]: the half-maximal inhibitory concentration (IC50) in the data set with NCI-H292 amounted to 924 nM; in the data set with HK-2 it was 2720 nM; with NCI-H1975 [1] it was […]; in data set [22], 3350 nM; with PC-9 [2], […]; in data set [23], 2250 nM. In addition, in the data set on NCI-H1975 [20], the tumour growth inhibition (TGI) is recorded as 97.64%. In addition, the Activity with NCI-H1975 [21] is recorded as 21 mm3.

Regarding `C=CC(=O)Nc1cc(Nc2nccc(-c3cn(C4CC4)c4ccccc34)n2)c(OC)cc1SCCN(C)C`, the IC50 amounted to 674 nM with NCI-H292, 21 nM with NCI-H1975 [1] and 44 nM with PC-9 [2]. The “Ratio IC50” value in [3] came out at 32.1.

As for `C=CC(=O)Nc1cc(Nc2ncc(Cl)c(-c3cn(C4CC4)c4ccccc34)n2)c(OC)cc1[S+]([O-])CCN(C)C` (stereo not drawn), the results for the IC50 in the data set on NCI-H292, in the data set with NCI-H1975 [1] and in the data set with PC-9 [2] were 156 nM, 9 nM and 5 nM, respectively. In data set [3], the “Ratio IC50” value turned out to be 17.3.

As to `C=CC(=O)Nc1cccc(Nc2nc(Nc3ccc(N4CCN(C(C)=O)CC4)cc3OC)ncc2C(F)(F)F)c1` [ROCILETINIB], the IC50 was 84 nM with PC-9 [6] and 23 nM with NCI-H1975 [24].

As for `C=CC(=O)Nc1cc(Nc2nccc(-c3cn(C4CC4)c4ccccc34)n2)c(OC)cc1OCCSC`, the concentration for half-maximal inhibition (IC50) in the data set with NCI-H292 was 9770 nM; with NCI-H1975 [1], 543 nM; in the data set with PC-9 [2], 648 nM. For the same molecule, the “Ratio IC50” value in data set [3] worked out at 18.

Regarding `C=CC(=O)Nc1cc(Nc2ncc(Cl)c(-c3cn(C4CC4)c4ccccc34)n2)c(OC)cc1SCCN(C)C`, the values for the IC50 in the data set on NCI-H292, in the data set with NCI-H1975 [1] and in the data set on PC-9 [2] were 157 nM, 8 nM and 9 nM, respectively. The “Ratio IC50” value in data set [3] was 19.6.

On to `C=CC(=O)Nc1cccc(Oc2nc(Nc3ccc(N4CCN(C)CC4)cc3OC)ncc2Cl)c1`, for which the half-inhibitory concentration (IC50) in the data set on PC-9 [6] was 36 nM; in the data set with NCI-H1975 [24] it was 47 nM.

Regarding `C=CC(=O)Nc1cc(Nc2nccc(-c3cn(C4CC4)c4ccccc34)n2)c(OC)cc1OCCC[S+](C)[O-]` (stereo not drawn), the IC50 came out at 3760 nM in the data set with NCI-H292, 445 nM in the data set with NCI-H1975 [1] and 203 nM in the data set with PC-9 [2]. The “Ratio IC50” value in data set [3] was found to be 8.5.

As for `C=CC(=O)Nc1cc(Nc2nccc(-c3cn(C4CC4)c4ccccc34)n2)c(OC)cc1N(C)CCSC`, the half-maximal inhibitory concentration (IC50) was 2630 nM with NCI-H292, 1300 nM in the data set on NCI-H1975 [1] and 1320 nM with PC-9 [2]. In data set [3], the “Ratio IC50” value stood at 2.

`COc1cc2ncnc(Nc3ccc(F)c(Cl)c3)c2cc1NC(=O)/C=C/CN1CCCCC1` [DACOMITINIB ANHYDROUS]: the 50% inhibitory concentration (IC50) came to 18 nM with BT-474 and 15 nM with SK-BR-3.

Consider `C=CC(=O)Nc1cc(Nc2nccc(-c3cn(C4CC4)c4ccccc34)n2)c(OC)cc1OCCN(C)C`, for which the values for the IC50 in the data set on NCI-H292, in the data set with NCI-H1975 [1] and in the data set on PC-9 [2] were 432 nM, 8 nM and 5 nM, respectively. Besides, the “Ratio IC50” value in data set [3] is given as 54.
